From patent US20210078958A1, “QUINAZOLINE DERIVATIVE AND USE THEREOF” (MEDSHINE DISCOVERY INC., priority 2017, published 2021) come the findings set out here.

Series [1] can be described thus: Assay Example 7: pharmacokinetics in mice. The series is classed as in vivo. Conditions: mouse, female BALB/c mice, plasma, dose not given. Here is the method:
Purpose of the assay: this assay aims to investigate in vivo plasma pharmacokinetics of the example compounds disclosed herein and the reference compound in female BALB/c mice after the single intravenous injection and intragastric administration thereof.
Animals of the assay: female BALB/c nude mice, 7-9 weeks old, weighted 17-23 grams; supplier: shanghai sippr bk laboratory animals Ltd.
Sample collection: at each time point, a 0.03 mL blood sample was collected from the saphenous vein of the test animal by puncture, and the actual blood collection time was recorded. All blood samples were added into commercial EDTA-K2 anticoagulation tubes with a specification of 1.5 mL (the supplier was Jiangsu KANGJIAN Medical Apparatus Co., Ltd.). Within half an hour after the blood sample was collected, the blood sample was centrifuged at 3000 g at 4° C. for 10 minutes, and the supernatant plasma was drawn, quickly placed in dry ice, and stored in a refrigerator at −80° C. for LC-MS/MS analysis.
Data analysis: Plasma concentrations were processed using a non-compartmental model of WinNonlin™ Version6.3 (Pharsight, MountainView, Calif.) pharmacokinetic software, and pharmacokinetic parameters Cmax, Tmax, T1/2, and AUC0-last were calculated using a linear log trapezoid method.

Series [2] has as its system subcutaneous xenograft tumor of human gastric cancer NCI-N87 cells. The experiment in a line: Assay Example 5: in vivo pharmacodynamics, NCI-N87 xenograft. Conditions: 0.5 mg/kg. Also noted: species or system BALB/c nude mouse. Here is the method: Purpose of the assay: to evaluate the in vivo efficacy of test compounds disclosed herein on subcutaneous xenograft tumor of human gastric cancer NCI-N87 cells in a BALB/c nude mouse model.
Animals of the assay: female BALB/c nude mice, 6-8 weeks old, weighing 18-22 grams; supplier: shanghai sippr bk laboratory animals Ltd.
Human gastric cancer NCI-N87 cells were cultured in monolayer in vitro. The culture conditions were RPMI-1640 medium plus 10% fetal bovine serum, 100 U/mL penicillin, 100 μg/mL streptomycin, 37° C., 5% CO2. The passaging was performed by conventional digestion with trypsin-EDTA twice a week. When the cell saturation was 80%-90%, the cells were collected, counted and inoculated.
0.2 mL (10×10^6) of NCI-N87 cells (PBS+Matrigel, 1:1) were inoculated subcutaneously on the right back of each mouse. When the average tumor volume reached 156 mm^3, administration to each group was started.
The test compounds were formulated into a 0.05 mg/mL clear solution in the solvents of 10% NMP (N-methylpyrrolidone)+10% ethylene glycol stearate+80% water.
The assay index is to investigate whether tumor growth is inhibited, delayed or cured. Tumor diameter was measured twice a week with a vernier caliper. The calculation formula of tumor volume is: V=0.5a×b^2, wherein a and b represent the long and short diameters of tumor, respectively.
The antitumor efficacy of the compounds were evaluated by TGI (%) or tumor proliferation rate T/C (%). TGI (%) reflects the tumor growth inhibition rate. TGI (%) is calculated as follows: TGI (%)=[1−(average tumor volume at the end of administration for a certain treatment group−average tumor volume at the beginning of administration for this treatment group)/(average tumor volume at the end of treatment for a solvent control group−average tumor volume at the beginning of administration for this solvent control group)]×100%.
Tumor proliferation rate T/C (%): the calculation formula is as follows: T/C (%)=average tumor volume at the end of administration for a certain treatment group/average tumor volume at the end of treatment for the solvent control group×100%.
Statistical analysis included the mean and standard error (SEM) of tumor volume at each time point in each group (See Table 5-1 for specific data). […] The comparison between two groups was analyzed by T-test, and the comparison among three or more groups was analyzed by one-way ANOVA. […] All data analysis was carried out with SPSS 17.0. p<0.05 was considered a significant difference.

The target in the next series is HER1 (ErbB1) (Homo sapiens, UniProt P00533). In words: in vitro enzyme activity, HER1 (ErbB1). The class given is biochemical. Conditions: human ErbB1, [γ-33P]ATP, poly(Glu, Tyr) substrate. Here is the method:
(§1) The purpose of this assay is to detect the in vitro inhibitory activity of compounds on HER1 (ErbB1), HER2 (ErbB2), and HER4 (ErbB4). The enzymes used in this assay are human ErbB1, ErbB2 and ErbB4. Eurofins Pharma Discovery Service provided the method for activity detection.
(§2) Steps and Method of the Assay (96-Well Plate):
(§3) A buffer solution of the test compounds in a dilution of 5-fold (5 μL), polypeptide substrate poly(Glu, Tyr) (4:1) (2.5 μL), ErbB (4-20 ng, 2.5 μL), MnCl2 (50 mM, 1.25 μL), dH2O (3.75 μL), and [γ-^33P]ATP (10 μL) were added, and incubated at 30° C. for 10 minutes. The reaction was terminated by adding 3% phosphoric acid. 10 μL of the sample was taken and transferred to Filtermate A. The filter disc was washed 3 times with 75 mM phosphoric acid and once with methanol. The filter disc was transferred to a sealed plastic bag and the scintillation mixture (4 mL) was added. The intensity of the emitted photon was detected by a scintillation luminescence counter. The CPM (times/min) of the enzyme sample was compared with the CPM of the internal control sample. The level of photon intensity reflected the degree of the tyrosine kinase activity.

The test system of the next series is BT-474 cell. The experiment in a line: inhibitory activity on cell proliferation (Cell-Titer-Glo), BT-474. To be noted: Homo sapiens. The series is classed as cell-based. An excerpt:
(§4) Purpose of the assay: to detect the inhibitory activity of the test compounds on cell proliferation.
(§5) Principle of the assay: the luciferase in a Cell-Titer-Glo reagent produces oxidized luciferin with luciferin, oxygen and ATP as reaction substrates, and releases energy in the form of light. Since the luciferase reaction requires ATP, the total amount of light generated by the reaction is proportional to the total amount of ATP that reflects cell viability.
(§6) Cell Titer-Glo cell viability assay kit with luminescence (Promega #G7573)
(§7) According to the schematic diagram of the cell seed plate, cells were seeded in a 384- or 96-well plate at a density of 1000 cells per well and 25 μL per well, and 25 μL of PBS was added to the wells near edge of the place where no cells were seeded.
(§8) (1) The stock solution of the compounds has a concentration of 10 mM, and the compounds were diluted with DMSO to an initial concentration of 4 mM. The compounds were added to the plate with stock solution of compounds, 9 μL per well.
(§9) (2) The compounds were diluted with an ECHO liquid workstation, where 125 nL of compounds were added to each well of the cell plate, 125 nL of DMSO was added to each of the cell well in columns 2 and 23, and 125 nL of DMSO was added to each PBS well in columns 1 and 24.
(§10) 2.3 After addition of the compounds, the cell plate was centrifuged at 1000 rpm for 1 min, and then placed in a 37° C., 5% CO2 incubator for incubation for 3 days.
(§11) The cell plate was taken out from the incubator and equilibrated at room temperature for 30 minutes. 25 μL of Cell-Titer-Glo reagent was added to each well, shaken for one minute to allow well mixed, and centrifuged at 1000 rpm for 1 minute. After 10 minutes, the plate was read on PerkinElmer Envision, and the […] reading time was set to 0.2 second.

A further series concerns the target HER4 (ErbB4) (Homo sapiens, UniProt Q15303). The experiment in a line: in vitro enzyme activity, HER4 (ErbB4). The series is classed as biochemical. Conditions: human ErbB4, [γ-33P]ATP, poly(Glu, Tyr) substrate. The method, then:
as §1, §2, §3

The target of another series is HER2 (ErbB2) (Homo sapiens, UniProt P04626). The experiment in a line: in vitro enzyme activity, HER2 (ErbB2). To be noted: human ErbB2, [γ-33P]ATP, poly(Glu, Tyr) substrate. The series is classed as biochemical. Here is the method: as §1, §2, §3
The subject of the next series is NCI-N87 cell. In words: inhibitory activity on cell proliferation (Cell-Titer-Glo), NCI-N87. The series is classed as cell-based. To be noted: Homo sapiens.
From the text: as §4, §5, §6, §7, §8, §9, §10, §11

A further series relates to OE19 cells. In words: CTG assay of OE19 cells. The series is classed as cell-based. To be noted: Homo sapiens, 72 hours of cell culture, Cell Titer Glo. Here is the method:
OE19 cells with saturation of 80%-90% were digested with trypsin, centrifuged, resuspended and counted. The concentration of cells was adjusted to […]. OE19 cells were added to a 96-well cell culture plate to 8000 OE19 cells per well. The cells were cultured in a cell incubator containing 5% CO2 at 37° C. overnight.
The stock solution of the test compounds was serially 3-fold diluted with DMSO to a total of 10 concentrations. Before the start of the assay, the serially diluted test compounds were further diluted to 10× compound solutions (the compound with a highest concentration contains 1% DMSO) with cell culture medium under sterile conditions. The prepared 10× compound solutions were added to the cell culture plate, and the 10 μL compound solution was added to each well. In this way, the final concentrations of staurosporine as the standard control and all the test compounds were obtained starting from […] as the initial concentration in a 3-fold serial dilution to get 10 test concentrations.
After 72 hours of cell culture, the 96-well cell culture plate was taken out. Cell Titer Glo reagent was added at […], mixed, centrifuged, and incubated at room temperature in the dark for 10 minutes. The cell plate was placed in Envision for reading.
The inhibition rate was calculated according to original data as follows:
Inhibition %=(ZPE−sample detection value)/(ZPE−HPE)×100%
The well containing 10 mM staurosporine on DAY3 (the first day of the assay is the day when compounds were added, and DAY3 is the day when reading is perfomed) was used as the HPE (100% inhibition control) well, and the well containing 0.1% DMSO on DAY3 was used as the ZPE (0% inhibition control) well. Each concentration of test compounds was tested in duplicate.
Non-linear regression analysis was performed using the processed data and GraphPad Prism 6 analysis software to obtain a dose-response curve, and the half-inhibitory concentration (IC50) of the test compounds on OE19 cells was calculated.
(ATP-based viability assays read luminescence as a measure of living cells.)

Another series concerns OE21 cell. The experiment in a line: inhibitory activity on cell proliferation (Cell-Titer-Glo), OE21. The series is classed as cell-based. To be noted: Homo sapiens, OE21, 72 h, incubation for 3 days.
From the text: as §4, §5, §6, §7, §8, §9, §10, §11

[3] abbreviates: BT-474, footnote d: initial dilution concentration of compounds is 10 μM.
Where [4] appears, read: NCI-N87, footnote d: initial dilution concentration of compounds is 10 μM.
[5] abbreviates: NCI-N87, 72 h, incubation for 3 days, Cell-Titer-Glo.

Sequence of HER1 (ErbB1) (P00533 25-1210): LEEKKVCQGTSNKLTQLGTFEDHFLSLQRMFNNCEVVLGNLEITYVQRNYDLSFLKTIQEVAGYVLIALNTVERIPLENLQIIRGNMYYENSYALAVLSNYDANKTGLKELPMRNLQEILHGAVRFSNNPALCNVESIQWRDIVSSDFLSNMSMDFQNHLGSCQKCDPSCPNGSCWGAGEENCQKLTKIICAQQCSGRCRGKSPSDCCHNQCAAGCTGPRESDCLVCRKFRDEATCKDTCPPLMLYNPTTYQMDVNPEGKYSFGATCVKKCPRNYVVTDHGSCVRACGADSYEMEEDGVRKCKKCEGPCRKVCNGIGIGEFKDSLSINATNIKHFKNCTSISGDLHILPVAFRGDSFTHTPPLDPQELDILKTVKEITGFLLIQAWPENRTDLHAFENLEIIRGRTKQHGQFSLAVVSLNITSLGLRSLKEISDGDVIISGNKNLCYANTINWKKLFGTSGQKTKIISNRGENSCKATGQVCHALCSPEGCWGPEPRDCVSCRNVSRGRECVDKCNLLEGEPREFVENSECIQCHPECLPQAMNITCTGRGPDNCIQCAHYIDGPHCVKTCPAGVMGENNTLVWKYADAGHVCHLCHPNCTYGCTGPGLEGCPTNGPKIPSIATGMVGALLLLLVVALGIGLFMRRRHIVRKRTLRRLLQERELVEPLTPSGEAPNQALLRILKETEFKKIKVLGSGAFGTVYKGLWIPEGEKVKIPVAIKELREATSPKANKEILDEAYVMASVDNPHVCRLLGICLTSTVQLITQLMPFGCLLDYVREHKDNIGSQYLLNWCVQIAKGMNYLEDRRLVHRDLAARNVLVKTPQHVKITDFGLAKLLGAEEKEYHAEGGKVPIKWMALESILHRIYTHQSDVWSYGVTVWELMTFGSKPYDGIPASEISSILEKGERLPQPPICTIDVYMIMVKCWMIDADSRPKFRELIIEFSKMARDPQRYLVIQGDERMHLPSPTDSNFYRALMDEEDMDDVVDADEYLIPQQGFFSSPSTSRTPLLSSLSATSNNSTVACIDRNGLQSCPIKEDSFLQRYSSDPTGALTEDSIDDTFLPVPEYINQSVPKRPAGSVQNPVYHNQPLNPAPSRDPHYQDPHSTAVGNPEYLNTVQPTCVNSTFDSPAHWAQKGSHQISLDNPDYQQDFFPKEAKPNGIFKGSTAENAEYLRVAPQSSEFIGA
Sequence of HER4 (ErbB4) (Q15303 26-1308): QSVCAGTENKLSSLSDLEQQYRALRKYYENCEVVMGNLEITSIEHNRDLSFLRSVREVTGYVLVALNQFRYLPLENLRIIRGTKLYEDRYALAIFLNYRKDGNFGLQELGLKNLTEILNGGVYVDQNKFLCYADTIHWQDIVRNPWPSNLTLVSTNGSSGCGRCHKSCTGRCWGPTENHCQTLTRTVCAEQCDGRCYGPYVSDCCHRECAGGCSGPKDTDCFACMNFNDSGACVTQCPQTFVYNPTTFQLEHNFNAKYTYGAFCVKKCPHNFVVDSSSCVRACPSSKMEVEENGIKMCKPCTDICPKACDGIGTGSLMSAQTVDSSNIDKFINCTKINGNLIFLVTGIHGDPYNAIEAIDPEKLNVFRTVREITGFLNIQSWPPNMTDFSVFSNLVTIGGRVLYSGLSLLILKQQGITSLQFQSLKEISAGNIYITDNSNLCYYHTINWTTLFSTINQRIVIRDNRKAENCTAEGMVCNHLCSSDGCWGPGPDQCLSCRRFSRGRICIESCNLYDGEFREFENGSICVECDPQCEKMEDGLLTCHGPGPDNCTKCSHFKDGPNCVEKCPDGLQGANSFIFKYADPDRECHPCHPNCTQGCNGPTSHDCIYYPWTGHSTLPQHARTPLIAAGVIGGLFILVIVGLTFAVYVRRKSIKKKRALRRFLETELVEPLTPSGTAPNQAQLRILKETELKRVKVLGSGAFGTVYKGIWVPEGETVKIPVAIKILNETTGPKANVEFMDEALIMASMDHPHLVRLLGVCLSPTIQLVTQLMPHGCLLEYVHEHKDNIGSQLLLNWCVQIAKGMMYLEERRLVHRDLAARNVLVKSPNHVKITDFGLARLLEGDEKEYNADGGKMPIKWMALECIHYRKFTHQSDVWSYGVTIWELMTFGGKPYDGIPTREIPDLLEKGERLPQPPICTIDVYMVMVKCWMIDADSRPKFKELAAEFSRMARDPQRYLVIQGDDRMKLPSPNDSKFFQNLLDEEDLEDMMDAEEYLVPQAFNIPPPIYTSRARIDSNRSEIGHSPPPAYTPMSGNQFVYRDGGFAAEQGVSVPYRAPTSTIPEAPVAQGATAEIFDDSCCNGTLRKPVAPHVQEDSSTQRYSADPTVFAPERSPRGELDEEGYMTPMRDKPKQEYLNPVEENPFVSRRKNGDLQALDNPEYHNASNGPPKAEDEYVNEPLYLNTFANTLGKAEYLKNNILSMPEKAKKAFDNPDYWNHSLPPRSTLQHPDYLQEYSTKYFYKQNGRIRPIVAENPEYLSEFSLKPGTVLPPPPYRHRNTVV
Sequence of HER2 (ErbB2) (P04626 23-1255): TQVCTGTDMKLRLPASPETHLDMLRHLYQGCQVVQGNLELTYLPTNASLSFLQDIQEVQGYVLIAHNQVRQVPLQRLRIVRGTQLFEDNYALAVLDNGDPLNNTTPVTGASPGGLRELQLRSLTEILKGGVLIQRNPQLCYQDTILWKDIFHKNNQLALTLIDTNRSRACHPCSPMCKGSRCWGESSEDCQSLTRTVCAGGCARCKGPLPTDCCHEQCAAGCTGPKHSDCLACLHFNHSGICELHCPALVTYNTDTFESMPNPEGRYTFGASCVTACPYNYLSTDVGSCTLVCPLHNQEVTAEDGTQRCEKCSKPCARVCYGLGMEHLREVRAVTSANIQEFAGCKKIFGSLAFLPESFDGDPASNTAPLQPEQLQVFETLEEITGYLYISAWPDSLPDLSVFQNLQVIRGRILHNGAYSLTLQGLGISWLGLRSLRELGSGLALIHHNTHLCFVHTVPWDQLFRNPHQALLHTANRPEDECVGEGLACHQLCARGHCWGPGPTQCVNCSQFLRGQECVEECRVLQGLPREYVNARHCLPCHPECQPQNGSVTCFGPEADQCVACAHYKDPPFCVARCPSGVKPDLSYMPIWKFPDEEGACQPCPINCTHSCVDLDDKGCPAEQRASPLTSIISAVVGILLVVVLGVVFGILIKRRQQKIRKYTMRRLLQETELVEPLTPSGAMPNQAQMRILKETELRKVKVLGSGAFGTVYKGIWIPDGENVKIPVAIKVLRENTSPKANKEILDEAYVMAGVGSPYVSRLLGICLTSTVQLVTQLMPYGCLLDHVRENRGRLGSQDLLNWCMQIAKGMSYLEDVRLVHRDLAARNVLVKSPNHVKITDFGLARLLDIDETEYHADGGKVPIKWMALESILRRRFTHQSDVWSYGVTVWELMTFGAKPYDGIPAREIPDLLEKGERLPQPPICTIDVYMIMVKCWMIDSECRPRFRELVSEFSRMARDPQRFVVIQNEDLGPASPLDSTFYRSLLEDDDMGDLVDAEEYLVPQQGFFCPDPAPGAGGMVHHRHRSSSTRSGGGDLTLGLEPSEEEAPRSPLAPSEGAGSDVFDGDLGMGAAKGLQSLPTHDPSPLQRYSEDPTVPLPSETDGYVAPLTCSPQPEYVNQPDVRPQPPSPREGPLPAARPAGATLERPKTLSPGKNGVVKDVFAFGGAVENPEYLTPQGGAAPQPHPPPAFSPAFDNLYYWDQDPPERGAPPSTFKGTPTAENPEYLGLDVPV

For `C=CC(=O)N1CCC(Nc2cc3c(Nc4ccc(F)c(Cl)c4)ncnc3cc2OC)CC1` [Control compound 2], in [1] (oral), the Tmax (in general, the time from dosing to the highest level) is 2 h and the half-life – broadly, the time in which the quantity being followed falls by half – was 1.5 h. Further, in series [1] (oral plasma exposure), the AUC(0-t) (as a rule, exposure summed from dosing to a finite time, without extrapolation to infinity) came to 82 µM·h and the Cmax (in general, the highest concentration seen after dosing) is 15.3 µM. Further, the “Tumor volume (mm^3) (Day 21)” value in series [2] (NCI-N87 xenograft, Mean + SEM) is on record as 541 ± 88 mm^3. In series [2] (day 21), the “T/C (%)” value was 89.35% and the “TGI (%)” value stood at 18.83%.

Take `C=CC(=O)N1C[C@H]2C[C@@H](C1)[C@H]2Nc1cc2c(Nc3ccc(Cl)c(Cl)c3F)ncnc2cc1OC` [Example 9]: the half-inhibitory concentration (IC50) (in general, the concentration needed to halve the response being measured) is 9 nM on HER1 (ErbB1); 2.1 nM with BT-474 cell (setting [3]); 8 nM against HER4 (ErbB4); 13 nM on HER2 (ErbB2); 0.9 nM in the series with NCI-N87 cell (setting [4]).

For `C=CC(=O)N1C[C@H]2C[C@@H](C1)[C@H]2Oc1cc2c(Nc3ccc(Cl)c(Cl)c3F)ncnc2cc1OCCO` [Example 13], the 50% inhibitory concentration (IC50) is 5 nM at HER1 (ErbB1); 2 nM in the series on BT-474 cell (setting [3]); 7 nM against HER4 (ErbB4); 8 nM at HER2 (ErbB2); 1.6 nM with NCI-N87 cell (setting [4]).

`C=CC(=O)N1C[C@H]2C[C@@H](C1)[C@H]2Oc1cc2c(Nc3ccc(Cl)c(Cl)c3F)ncnc2cc1OCCCN1CCOCC1` [Example 18]: the IC50 at HER1 (ErbB1) came out at 9 nM; in the series on BT-474 cell (setting [3]) it was 2.4 nM; at HER4 (ErbB4), 5 nM; against HER2 (ErbB2), 12 nM; in the series on NCI-N87 cell (setting [4]), 1.3 nM.

As for `C=CC(=O)N1[C@@H]2CC[C@H]1C[C@H](Oc1cc3c(Nc4ccc(Cl)c(Cl)c4F)ncnc3cc1OCC)C2` [Example 21], the IC50 on HER1 (ErbB1) is 12 nM; in the series with BT-474 cell (BT-474, 72 h, incubation for 3 days, Cell-Titer-Glo) it was 0.46 nM; against HER4 (ErbB4), 3 nM; on HER2 (ErbB2), 5 nM; with NCI-N87 cell (setting [5]) it was 0.35 nM.

For `C=CC(=O)N1[C@@H]2CC[C@H]1C[C@H](Oc1cc3c(Nc4ccc(F)c(Cl)c4F)ncnc3cc1OC)C2` [Example 34], the half-maximal inhibitory concentration (IC50) on HER1 (ErbB1) worked out at 5 nM; in the series on OE19 cells, 0.001 nM; on HER4 (ErbB4), 2 nM; against HER2 (ErbB2), 4 nM; in the series with NCI-N87 cell (setting [5]), 0.42 nM; with OE21 cell it was 0.27 nM.

For the compound `C=CC(=O)N1[C@@H]2CC[C@H]1C[C@H](Nc1cc3c(Nc4ccc(F)c(Cl)c4F)ncnc3cc1OC)C2` [Example 48], the IC50 against HER1 (ErbB1) amounted to 9 nM; in the series on OE19 cells, 0.24 nM; on HER4 (ErbB4), 4 nM; against HER2 (ErbB2), 11 nM; with OE21 cell, 0.17 nM.
